The values that follow come from EP0029617A1, “Use of tertiary heterocyclic amines as synergists in pesticides; derivatives of cycloamines” (priority 1979, dated 1981).

Read-outs that look alike come from different tables or passages of the source.

In series [1] the test system is Kornkäfer (sitophilus granarius L). Put plainly: whole plant or invertebrate. The class given is in vivo. In short, it runs like this:
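Acetone solutions (2 ml) were dried as films in 15 cm Petri dishes and 25 grain weevils added per dish, with a filter inserted after 1 h. Dead beetles were counted at 3 h at 19–21 °C, and % mortality and the synergistic factor were derived.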

The nature of series [2]: Acute oral toxicity, single oral application, 14 day LD50. The note with it: rat, in vivo, read-out: 14 Tage LD50. On the set-up: species or system SPF-Wistar-Ratten. The text has this: Die erfindungsgemäßen Verbindungen haben nur eine geringe Toxizität. Es wurde die akute, orale Toxizität von Phenyl-N-piperidino-essigsäure-ethylester und 1-N-Undecyl-piperidin bestimmt. Die Tests wurden mit SPF-Wistar-Ratten durchgeführt und die Wirkstoffe einmal oral appliziert.

A further series deals with Drosophila melanogaster. Nature of the series: whole plant or invertebrate. The class given is in vivo. The text has this: Die insektiziden Wirkungen von tertiären heterocyclischen Aminen und die synergistischen Eigenschaften mit dem Phosphorsäureester Dimethoat und dem Carbamat Dimetilan, getestet an Drosophila melanogaster.
Die Versuche wurden in Petrischalen von 10 cm Durchmesser ausgeführt. Es wurden zunächst die gerade noch wirksamen Konzentrationen von Dimethoat und Dimetilan bestimmt. Für Dimethoat wurde 0,005 % und für Dimetilan 0,0001 % als günstige Versuchskonzentration ermittelt. Die Aminkomponente wurde mit 1 ml 0,05%iger Lösung + 1 ml Aceton auf insektizide Wirkung getestet. Zur Bestimmung des Synergismus wurde 1 ml 0,05%ige Aminlösung + 1 ml 0,005.%ige Dimethoatlösung, bzw. + 1 ml 0,0001%ige Dimetilanlösung pro Petrischale eingesetzt. Alle Verdünnungen wurden mit Aceton als Lösungsmittel hergestellt.
In den Petrischalen wurden die Lösungen am Boden gut verteilt und 30 min lang antrocknen lassen. In jede Petrischale wurden 20 mit Kohlendioxid betäubte Drosophila eingezählt. Alle 5 min, insgesamt 12 mal, wurde die Anzahl der toten Drosophila ausgezählt und notiert. Die Zahlen wurden aufsummiert und im Verhältnis zur möglichen Zahl an toten Drosophila in % angegeben, wobei der Tot aller Drosophila innerhalb der ersten 5 min 100 % Wirkung entspricht. Jeder Versuch wurde mit 3 Wiederholungen durchgeführt. In Tabelle 1 sind die Mittelwerte der Ergebnisse zusammengestellt.
Zur Ermittlung des synergistischen Faktors wurden die Einzelwerte pro Zeiteinheit durch die für Dimethoat, bzw. Dimetilan für die jeweilige Zeiteinheit gefundenen Werte dividiert. Die Werte für jede Zeiteinheit wurden summiert und durch die Anzahl der Zeiteinheiten dividiert. Die Versuche wurden bei sonst stets gleichbleibenden Bedingungen bei Temperaturen von 20 - 22°C ausgeführt. Die Kontrollversuche zeigten bei Versuchsabschluß stets 0 % Mortalität. Hat die Substanz selbst eine insektizide Wirkung, so wurden die Wirkungsfaktoren für Dimethoat und Dimetilan nach Abzug des Substanzwertes berechnet und in der Tabelle aufgeführt.
Im Beispiel 1 war das Verhältnis von Insektizid und erfindungsgemäßem Amin 1 : 10 in den Gemischen mit Dimethoat. In der Tabelle 2 sind Verhältnisse von 1 : 1, 1 : 2 und 1 : 0,2 bei Versuchen mit Dimethoat aufgeführt, dabei wurde das Dimethoat immer in einer Konzentation von 0,005 % eingesetzt. Die Tabelle zeigt, daß auch bei diesen Verhältnissen noch eine gute synergistische Wirkung vorhanden ist, und es keineswegs einer großen überdosierung des Amins bedarf.

The mark [3] stands for this setting: Pyrethroid : Amin 1 : 10, amine 0,1 mg/ml, 180 min.

As for `CCOC(=O)C(c1ccccc1)N1CCCCC1` (centres unmarked) [Phenyl-N-piperidino-essigsäure-ethylester], the “Synergistischer Faktor bei Ripcord” value in series [1] (Pyrethroid : Amin 1 : 10) is reported as 3,14. The “Synergistischer Faktor bei Talcord” value in series [1] (Pyrethroid : Amin 1 : 10) is 5,24. Further, in series [1] (setting [3]), the “% Wirkung Substanz +Ripcord” value is 98,8%. Besides, in series [1] (setting [3]), the “% Wirkung Substanz +Talcord” value is recorded as 50,8%. In addition, in series [1] (Sitophilus granarius, 3 h, amine 0,1 mg/ml (as for Pyrethroid : Amin 1 : 10), read-out: % Wirkung Substanz allein), the mortality at 100 µg/mL was found to be 0%. Also, the 50% lethal dose (LD50) at 336 h in series [2] (männliche Ratten) is 9750 mg/kg; in series [2] (weibliche Ratten) it was 8170 mg/kg. Further, the “Wirksamkeit in % Substanz +Dimeti-lan” value in the series with Drosophila melanogaster (1 ml 0,05%ige amine solution + 1 ml 0,0001%ige Dimetilan solution) was 2,7%. For the same compound, in the series on Drosophila melanogaster (1 ml 0,05%ige amine solution + 1 ml 0,005 %ige Dimethoat solution (Dimethoat : amine 1 : 10)), the “Wirksamkeit in % Substanz +Dimethoat” value is listed as 22,2%. The mortality at 0.05 % was found to be 0% in the series with Drosophila melanogaster (Drosophila melanogaster, 1 ml 0,05%ige amine solution + 1 ml Aceton per dish, 20 flies, dead counted every 5 min, 12 times, mean values, read-out: Wirksamkeit in % Substanz allein) and 0% in the series with Drosophila melanogaster (Drosophila melanogaster, amine 0,05 %, read-out: Sub-stanz allein). Also, the mortality at 0.01 % with Drosophila melanogaster (Drosophila melanogaster, amine 0,01 %, read-out: Sub-stanz allein) stood at 0%. The “Substanz + Dime-thoat” value with Drosophila melanogaster (amine 0,01 % + Dimethoat 0,005 %, Dimethoat : Amin 1 : 2) was 59,2%; in the series on Drosophila melanogaster (amine 0,05 % + Dimethoat 0,005 %, Dimethoat : Amin 1 : 10), 22,1%. For the same compound, the “Faktor der Wirkungs-steigerung” value is listed as 6,88 with Drosophila melanogaster (amine 0,01 %, Dimethoat : Amin 1 : 2) and 2,57 with Drosophila melanogaster (amine 0,05 %, Dimethoat : Amin 1 : 10). For the same compound, the “Faktor der Wirkungssteigerung bei Dime-methoat” value with Drosophila melanogaster (amine 0,05 % + Dimethoat 0,005 %, calculated after subtracting the amine's own effect) is given as 2,57.

As usually defined, the LD50 is the dose expected to kill half of the subjects tested.
